Measured values from patent US10077436B2, “Beta-glucosidase enzymes for increased biomass saccharification” (Edeniq, Inc., priority 2013, dated 2018).

Target: T1, Aspergillus niger beta-glucosidase (CAB75696.1, SEQ ID NO:2) improved variant yEdQ885-BG (Aspergillus niger, UniProt Q9P8F4, Y363C/Y375F/Y610F)
T1 construct: strain yEdQ885, BG acid/base mutant #8
T1 sequence (Q9P8F4 20-860 Y363C/Y375F/Y610F): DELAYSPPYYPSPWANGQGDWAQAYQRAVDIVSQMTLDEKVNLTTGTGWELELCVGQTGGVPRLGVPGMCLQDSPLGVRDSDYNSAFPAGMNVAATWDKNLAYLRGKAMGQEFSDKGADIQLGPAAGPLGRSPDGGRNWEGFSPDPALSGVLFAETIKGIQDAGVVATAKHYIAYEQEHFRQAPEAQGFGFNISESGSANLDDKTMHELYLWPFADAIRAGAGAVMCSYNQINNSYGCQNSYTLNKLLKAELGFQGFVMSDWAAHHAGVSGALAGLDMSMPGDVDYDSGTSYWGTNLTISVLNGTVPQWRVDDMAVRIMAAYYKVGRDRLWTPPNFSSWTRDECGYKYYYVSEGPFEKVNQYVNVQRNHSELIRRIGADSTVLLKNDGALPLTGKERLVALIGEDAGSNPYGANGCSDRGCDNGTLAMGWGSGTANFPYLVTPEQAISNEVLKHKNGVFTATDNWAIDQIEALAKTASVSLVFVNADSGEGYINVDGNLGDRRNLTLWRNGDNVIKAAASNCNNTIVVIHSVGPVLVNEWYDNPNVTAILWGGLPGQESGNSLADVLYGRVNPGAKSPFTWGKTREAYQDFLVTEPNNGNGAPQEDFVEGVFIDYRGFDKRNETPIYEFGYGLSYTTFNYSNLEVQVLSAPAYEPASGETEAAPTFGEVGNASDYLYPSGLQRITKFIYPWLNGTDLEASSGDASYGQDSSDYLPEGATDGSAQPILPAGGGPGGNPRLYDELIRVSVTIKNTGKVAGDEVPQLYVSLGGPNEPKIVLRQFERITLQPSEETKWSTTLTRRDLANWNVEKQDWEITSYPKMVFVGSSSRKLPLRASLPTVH
Experiment: BG kinetics, pNPG hydrolysis assay with glucose as competitive inhibitor, yEdQ885-BG
Type: biochemical
From the text: The beta-glucosidase (BG) gene from Aspergillus niger (Accession #CAB75696.1) was integrated into the TR3 yeast background at the T4U3 genomic site.
High resolution enzyme assays and kinetic testing comparing the beta-glucosidases described herein and commercial enzyme preparations were pursued to more clearly quantify differences in mutant BG enzymes compared to the wild type BG enzyme. Based on data presented herein, BG mutant YEdQ885 was selected for further analysis and compared to the BG activity present in commercial preparations of SP188 (Novozymes) and Accellerase® BG (DuPont) as well as wild type BG. […]
BG activity assay using pNPG is one of the two commonly used standard assays to measure BG activity, which utilizes hydrolysis of p-nitrophenyl-β-D-glucopyranoside (pNPG) by BG into a yellow colored product, p-nitrophenol (pNP), that has a strong absorbance at 405 nm. […] The reaction was then terminated by adding 100 μL of 0.25 M sodium carbonate, and the amount of pNP produced was determined by measuring absorbance at 405 nm using a predetermined calibration curve. […]
To determine the kinetic properties, a competitive inhibition mechanism was hypothesized as proposed in the literature (Chauve et al, 2010; Krogh et al, 2010). […] The turnover number, Kcat, can be calculated by Equation (2), where [Et] is the total amount of enzyme. […]

With `OC[C@H]1OC(O)[C@H](O)[C@@H](O)[C@@H]1O` (some centres unmarked) [glucose] the Ki was 2190 ± 100 µM and the Km/Ki (inhibitor influence, Km for pNPG / Ki for glucose, pH 5.0, 50° C.) was 0.29.
